Measured values as given in publication PMC3142248, “The asthma candidate gene NPSR1 mediates isoform specific downstream signalling” (BMC Pulmonary Medicine, 2011).
No end group written: not given here.

T1: NPSR1-A (Homo sapiens, UniProt Q6W5P4, N107I)
T1 construct: expressed in transfected cells; host or cells: HEK-293, transient transfection with pCMV-NPSR1-A
T1 sequence (Q6W5P4 1-371 N107I): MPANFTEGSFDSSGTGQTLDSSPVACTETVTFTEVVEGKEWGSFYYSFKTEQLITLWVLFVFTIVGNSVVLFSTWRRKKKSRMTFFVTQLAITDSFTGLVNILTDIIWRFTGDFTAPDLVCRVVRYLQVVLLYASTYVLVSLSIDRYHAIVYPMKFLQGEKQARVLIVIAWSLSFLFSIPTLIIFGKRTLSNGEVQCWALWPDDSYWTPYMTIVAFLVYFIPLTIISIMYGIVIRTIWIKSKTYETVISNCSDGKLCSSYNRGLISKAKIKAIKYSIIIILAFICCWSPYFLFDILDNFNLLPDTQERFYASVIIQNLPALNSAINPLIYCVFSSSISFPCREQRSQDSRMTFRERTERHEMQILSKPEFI

T2: NPSR1-B (Homo sapiens, UniProt Q6W5P4, N107I)
T2 construct: expressed in transfected cells; host or cells: HEK-293, transient transfection with pCMV-NPSR1-B
T2 sequence (Q6W5P4 1-377 isoform Q6W5P4-4 N107I): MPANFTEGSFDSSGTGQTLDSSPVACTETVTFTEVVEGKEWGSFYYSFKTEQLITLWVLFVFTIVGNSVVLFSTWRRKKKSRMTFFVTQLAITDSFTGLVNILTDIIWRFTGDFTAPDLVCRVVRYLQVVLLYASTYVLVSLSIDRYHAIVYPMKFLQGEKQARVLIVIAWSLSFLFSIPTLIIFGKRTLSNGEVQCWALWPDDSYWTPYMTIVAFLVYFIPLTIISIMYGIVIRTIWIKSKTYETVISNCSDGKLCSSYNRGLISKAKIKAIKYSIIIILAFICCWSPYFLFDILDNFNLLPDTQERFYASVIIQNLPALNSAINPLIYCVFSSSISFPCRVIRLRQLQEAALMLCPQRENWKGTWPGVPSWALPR

B1: IFNγ: pro-inflammatory stimulus (protein, UniProt P01579 24-161, looked up)
Interferon gamma: QDPYVKEAENLKKYFNAGHSDVADNGTLFLGILKNWKEESDRKIMQSQIVSFYFKLFKNFKDDQSIQKSVETIKEDMNVKFFNSNKKKRDDFEKLTNYSVTDLNVQRKAIHELIQVMAELSPAAKTGKRKRSQMLFRG

Legend:
NPSR1-A [1] = molecular target: T1, NPSR1-A; assay: NPS concentration-response, mRNA expression by qRT-PCR, HEK-293 NPSR1-A; format: cell-based; settings: 0.001-10 μM NPS, 6 h, Hill fit, mean ± SEM
Protocol: (§1) Human embryonic kidney cells (HEK-293) were cultured in MEM+GlutaMAX-1 medium (Gibco/Invitrogen) supplemented with 10% fetal calf serum (FCS) (Biosera), 1% sodium pyruvate, 1% non-essential amino acids and 1% penicillin/streptomycin (Gibco/Invitrogen). Human epithelial lung carcinoma cells (A549) were cultured in F-12/D-MEM medium (1:1; Gibco/Invitrogen) supplemented with 10% FCS, L-glutamine and 1% penicillin/streptomycin. Human neuroblastoma cells (SH-SY5Y) were cultured in MEM + GlutaMAX-1 medium supplemented with 10% FCS and 1% penicillin/streptomycin. All cells were kept at 37°C in a humified 5% CO2 incubator. The cells were transiently transfected (Lipofectamin™2000 Reagent, Invitrogen, Carlsbad, USA) with equal amounts of pCMV-NPSR1-A,- NPSR1-B (construction of the expression vectors has been described earlier) or an empty pCMV vector control in a ratio of 1:2 (DNA:Lipofectamin). 24 h post transfection cells were stimulated with NPS ([…]) (Sigma-Genosys LTD, Haverhill, UK or New England Peptide™, Gardner, MA, USA).
(§2) Total cellular RNA was isolated with the RNAeasy Mini Kit (Qiagen, Hilden, Germany) and reverse transcription was done using the iScript™ cDNA synthesis kit (Bio-Rad Laboratories, Hercules, CA, USA) or SuperScript™ First-Strand Synthesis System (Invitrogen, Carlsbad, USA) according to the manufacturer's protocol. All experiments were performed in biological duplicates or triplicates. qRT-PCR was performed using Fast SYBR® Green technology with hypoxanthine-guanine phosphoribosyl transferase (HPRT) or glyceraldehyde-3-phosphate dehydrogenase (GAPDH) as endogenous controls. Gene-specific primers were designed using Primer3 software (for complete lists of all primer sequences please see Additional file 1, Table S1). The PCR assays were performed in a total volume of 10 μl, containing 2 ul cDNA template, 5 ul Fast SYBR® Green PCR Master Mix (Applied Biosystems, Foster City, CA, USA) and 100 nM of each primer. A 7500 Fast Real-Time PCR system (Applied Biosystems) was used according to manufacturer's instructions. A dissociation stage was added to confirm primer specificity. All assays were carried out in technical duplicates or triplicates. Relative quantification and calculation of the range of confidence was performed with the comparative ΔΔCT method. Results are shown as relative expression compared to NPS stimulated empty vector control cells with error bars illustrating the standard error of the mean (SEM). The levels of total NPSR1 mRNA and isoform specific NPSR1-A and NPSR1-B mRNA were measured with qRT-PCR to control for equal isoform expression levels prior to any experiment on all transiently transfected cells (representative data shown Figure 2b).
(§3) To refine concentration and time dependency transiently NPSR1-A, -B or empty pCMV vector overexpressing cells were treated either with 0.001, 0.01, 0.1, 1 or 10 μM NPS for 6 h (concentration-response) or with 2 μM NPS for 30 min, 1, 2, 4, 6, 12, 24 or 48 h (time-response). To verify the results in other cell types, A549 and SH-SY5Y transiently overexpressing NPSR1-A, -B or an empty pCMV vector were treated with 2 μM NPS for 6 h. mRNA expression was measured with qRT-PCR. Agonist concentration-effect curve data were fitted to the Hill equation using an iterative, least squares method (GraphPad Prism, San Diego, CA, U.S.A), to provide estimate EC50 (the agonist concentration that induces half-maximum effect) and presented as -log10 (pEC50) which is normally distributed.

NPSR1-B [2] = molecular target: T2, NPSR1-B; assay: NPS concentration-response, mRNA expression by qRT-PCR, HEK-293 NPSR1-B; format: cell-based; settings: 0.001-10 μM NPS, 6 h, Hill fit, mean ± SEM
Protocol: as §1, §2, §3

NPSR1-A [3] = molecular target: T1, NPSR1-A; assay: cAMP accumulation (EIA), HEK-293 NPSR1-A; format: cell-based; settings: 0.001-10 μM NPS, 20 min, 200 μM 3-isobutyl-1-methylxanthine 40 min before, six replicas, mean ± SEM
Protocol: (§4) Human embryonic kidney cells (HEK-293) were cultured in MEM+GlutaMAX-1 medium (Gibco/Invitrogen) supplemented with 10% fetal calf serum (FCS) (Biosera), 1% sodium pyruvate, 1% non-essential amino acids and 1% penicillin/streptomycin (Gibco/Invitrogen). Human epithelial lung carcinoma cells (A549) were cultured in F-12/D-MEM medium (1:1; Gibco/Invitrogen) supplemented with 10% FCS, L-glutamine and 1% penicillin/streptomycin. Human neuroblastoma cells (SH-SY5Y) were cultured in MEM + GlutaMAX-1 medium supplemented with 10% FCS and 1% penicillin/streptomycin. All cells were kept at 37°C in a humified 5% CO2 incubator. The cells were transiently transfected (Lipofectamin™2000 Reagent, Invitrogen, Carlsbad, USA) with equal amounts of pCMV-NPSR1-A,- NPSR1-B (construction of the expression vectors has been described earlier) or an empty pCMV vector control in a ratio of 1:2 (DNA:Lipofectamin). […]
(§5) To assay cAMP accumulation, transiently NPSR1-A or -B overexpressing HEK-293 cells were 24 h after transfection incubated for 40 min with 200 μM 3-isobutyl-1-methylxanthine (Sigma-Aldrich, St. Louis, MO, USA), a nonspecific inhibitor of phosphodiesterases. […] The fluorescence intensity was measured before and after injection of 1 μM NPS using the Fluostar Optima microplate reader (BMG Labtechnologies, Offenburg, Germany).

NPSR1-B [4] = molecular target: T2, NPSR1-B; assay: cAMP accumulation (EIA), HEK-293 NPSR1-B; format: cell-based; settings: 0.001-10 μM NPS, 20 min, 200 μM 3-isobutyl-1-methylxanthine 40 min before, six replicas, mean ± SEM
Protocol: as §4, §5

monocytic cell lines = settings: pro-inflammatory stimuli, ref [10]; cited from earlier work
Description: The increasing number of positive association studies supports the concept that NPSR1 is mechanistically involved in asthma and allergy, and also in other diseases. It is therefore highly important to understand its functions in more detail. […] Furthermore, we have observed that out ...

[5] = read-out: pEC50, AREG mRNA (converted)
[6] = read-out: pEC50, CGA mRNA (converted)
[7] = read-out: pEC50, NR4A2 mRNA (converted)
[8] = read-out: pEC50, PCK1 mRNA (converted)

Molecule	EC50 (NPSR1-A [1]; [5]) [nM]	EC50 (NPSR1-A [1]; [6]) [nM]	EC50 (NPSR1-A [1]; read-out: pEC50, EGR1 mRNA (converted)) [nM]	EC50 (NPSR1-A [1]; read-out: pEC50, FOS mRNA (converted)) [nM]	EC50 (NPSR1-A [1]; read-out: pEC50, IL8 mRNA (converted)) [nM]	EC50 (NPSR1-A [1]; [7]) [nM]	EC50 (NPSR1-A [1]; read-out: pEC50, NTS mRNA (converted)) [nM]	EC50 (NPSR1-A [1]; [8]) [nM]	EC50 (NPSR1-B [2]; [5]) [nM]	EC50 (NPSR1-B [2]; read-out: pEC50, CCL20 mRNA (converted)) [nM]	EC50 (NPSR1-B [2]; [6]) [nM]	EC50 (NPSR1-B [2]; [7]) [nM]	EC50 (NPSR1-B [2]; [8]) [nM]	EC50 (NPSR1-B [2]; read-out: pEC50, SERPINB2 mRNA (converted)) [nM]	EC50 (NPSR1-A [3]) [nM]	EC50 (NPSR1-B [4]) [nM]	NPSR1 mRNA levels (monocytic cell lines)
SFRNGVGTGMKKTSFQRAKS [NPS, neuropeptide S]	234	45.7	72.4	53.7	44.7	7.94	87.1	162	170	100	100	83.2	89.1	126	4.47	3.89	
TNFα																	generated elevated NPSR1 mRNA levels
B1																	generated elevated NPSR1 mRNA levels
